How the values were obtained:
[1] = tested on: effect of 5-HTP (5-HT syndrome); assay: 5-HTP-potentiation (5-HT syndrome in mice); type: in vivo; details: 5-HTP 100 mg/kg i.v. 30 minutes after test substance, log-probit analysis
Description: The test evaluates the ability of the substance to potentiate the effect of 5-HTP, which results in development of 5-HT syndrome (Christensen, Fjalland, Pedersen, Danneskiold-Samsoe and Svendsen; European J. Pharmacol. 41, 153-162, 1977).
Each treatment group consists of 3 mice, and two groups are treated with the highest test dose. A control group only treated with 5-HTP is included and a group treated with citalopram 10 mg/kg and 5-HTP is used as reference for full 5-HT syndrome.
30 minutes after the administration of the test substance, the other groups are given 5-HTP (100 mg/kg) i.v. (injection time 5-10 sec.). After this 5-HTP dose normal, untreated mice remain unaffected, but if the animals have been pretreated with a substance, which inhibits the uptake of 5-HT or a 5-HT agonist, a 5-HTP syndrome will occur. The symptoms are the same as previously described: (1) excitation, (2) tremor, and (3) abduction of the hind limbs. The animals are observed for 15 minutes and each animal is given one point for each symptom present. Again the result is stated in fractions: 0/9, 1/9, . . . 9/9, where 0, 1, . . . , 9 are the number of points per group after the dose in question. The ED50 value is calculated by log-probit analysis.

[2] = tested on: depression in man; details: racemate, Ref. A. Gravem et al. 1987; cited from earlier work
[3] = type: physicochemical
Description: A 2:1 addition compound of the (+)-isomer with L(+)-tartaric acid was prepared in the following manner: 4 g of the (+)-isomer as base were dissolved in 100 ml of diethyl ether and extracted into 100 ml of water containing 0.8 g of L(+)-tartaric acid by stirring. The organic phase was separated and discarded. The water-phase was freeze-dried in vacuo (<0.1 mm Hg) for 18 hours leaving 3.8 g of a white powder of the title compound.

CN(C)CCCC1(c2ccc(F)cc2)OCc2cc(C#N)ccc21 (racemic) [(±)-citalopram, 1-(3-dimethylaminopropyl)-1-(4'-fluorophenyl)-1,3-dihydroisobenzofuran-5-carbonitrile, reference compound]
ED50 ([1]; Mus musculus, iv, 0.5 h, read-out: 5-HTP pot. ED50): 3.3 µmol/kg | antidepressant efficacy in man [2]: efficient antidepressant compound in man

CN(C)CCCC1(c2ccc(F)cc2)OCc2cc(C#N)ccc21 (single isomer, unassigned; (+)) [(+)-citalopram, (+)-1-(3-Dimethylaminopropyl)-1-(4'-fluorophenyl)-1,3-dihydroisobenzofuran-5-carbonitrile]
5-HTP pot. ED50 [1]: 2.0 µmol/kg

CN(C)CCCC1(c2ccc(F)cc2)OCc2cc(C#N)ccc21 (single isomer, unassigned; (-)) [(-)-citalopram, (-)-1-(3-dimethylaminopropyl)-1-(4'-fluorophenyl)-1,3-dihydroisobenzofuran-5-carbonitrile]
5-HTP pot. ED50 [1]: 120 µmol/kg

CN(C)CCCC1(c2ccc(F)cc2)OCc2cc(C#N)ccc21 (single isomer, unassigned) [2:1 addition compound of the (+)-isomer with L(+)-tartaric acid]
stability [3]: stable | hygroscopicity ([3]; freeze-dried white powder): not hygroscopic

— patent publication USRE34712E, “Pharmaceutically useful (+)-1-(3-dimethylaminopropyl)-1-(4'-fluorophenyl)-1,3-dihydroiso benzofuran-5-carbonitrile and non-toxic acid addition salts thereof” (priority 1988, dated 1994)
